Measured values reported in ChEMBL document CHEMBL3832761, “MMV Pathogen Box Bioactivity Data” (2017).
Values after ≈ are worked out from the molar mass of the structure shown.

What was measured:
Type in all cases: functional
[1] = tested on: Mycobacterium tuberculosis; experiment: AntiMycobacterium tuberculosis activity Replicating form: Average MIC90 (uM)
[2] = tested on: Mycobacterium tuberculosis; experiment: AntiMycobacterium tuberculosis activity day 21 MIC99 in 7H9/2.5mM butyrate/pH6/0.1mM nitrite MIC99 (uM); conditions: 504 h
[3] = tested on: Mycobacterium tuberculosis; experiment: AntiMycobacterium tuberculosis activity 2-week Alamar Blue 7H9/cholesterol/BSA/Tx MIC (uM); conditions: 336 h
[4] = tested on: Mycobacterium tuberculosis; experiment: AntiMycobacterium tuberculosis activity Non-Replicating form: Average MIC90 (uM)
[5] = tested on: Mycobacterium tuberculosis; experiment: AntiMycobacterium tuberculosis activity 1-week 7H9/ADC/Tw MIC (uM); conditions: 168 h
[6] = tested on: Mycobacterium tuberculosis; experiment: (§1) AntiMycobacterium tuberculosis activity day 10 in 7H9/2.5mM butyrate/pH6/0.1mM nitrite MIC90 (uM); conditions: 240 h
[7] = tested on: HepG2; experiment: HepG2 CC50 (uM) Cytotoxicity; conditions: Homo sapiens
[8] = tested on: Mycobacterium tuberculosis; experiment: AntiMycobacterium tuberculosis activity 2-week 7H9/DPPC/cholesterol/BSA/Tx MIC (uM); conditions: 336 h
[9] = tested on: Mycobacterium tuberculosis; experiment: AntiMycobacterium tuberculosis activity day 21 in 7H9/2.5mM butyrate/pH6/0.1mM nitrite MIC90 (uM); conditions: 504 h
[10] = tested on: Mycobacterium tuberculosis; experiment: AntiMycobacterium tuberculosis activity 1-week 7H9/glucose/BSA/Tx MIC (uM); conditions: 168 h
[11] = tested on: Mycobacterium tuberculosis; experiment: AntiMycobacterium tuberculosis activity 2-week GAST/Fe MIC (uM); conditions: 336 h
[12] = tested on: Mycobacterium tuberculosis; experiment: AntiMycobacterium tuberculosis activity 2-week 7H9/ADC/Tw MIC (uM); conditions: 336 h
[13] = tested on: Mycobacterium tuberculosis; experiment: AntiMycobacterium tuberculosis activity 1-week 7H9/DPPC/cholesterol/BSA/Tx MIC (uM); conditions: 168 h
[14] = tested on: Mycobacterium tuberculosis; experiment: AntiMycobacterium tuberculosis activity 1-week GAST/Fe MIC (uM); conditions: 168 h
[15] = tested on: Mycobacterium tuberculosis; experiment: as §1; conditions: 240 h; remark: listed apart in the source
[16] = tested on: Mycobacterium tuberculosis; experiment: AntiMycobacterium tuberculosis activity 1-week 7H9/cholesterol/BSA/Tx MIC (uM); conditions: 168 h
[17] = tested on: Mycobacterium tuberculosis; experiment: AntiMycobacterium tuberculosis activity 2-week Alamar Blue 7H9/ADC/Tw MIC (uM); conditions: 336 h
[18] = tested on: Mycobacterium tuberculosis; experiment: AntiMycobacterium tuberculosis activity 2-week 7H9/glucose/BSA/Tx MIC (uM); conditions: 336 h

Row | SMILES | MIC90 [1] [µM] | MIC [2] [µM] | MIC [3] [µM] | MIC90 [4] [µM] | MIC [5] [µM] | MIC90 [6] [µM] | CC50 [7] [µM] | MIC [8] [µM] | MIC90 [9] [µM] | MIC [10] [µM] | MIC [11] [µM] | MIC [12] [µM] | MIC [13] [µM] | MIC [14] [µM] | MIC90 [15] [µM] | MIC [16] [µM] | MIC [17] [µM] | MIC [18] [µM]
1 | Cc1ccc2nc(Cl)c(CNCc3cccs3)cc2c1 | > 100 | > 50 | 37 (≈ 11.2 µg/mL) | 93.7 (≈ 28.4 µg/mL) | > 50 | > 50 | > 100 | > 50 | > 50 | > 50 | 1.56 (≈ 0.472 µg/mL) | > 50 | 12.5 (≈ 3.79 µg/mL) | 0.78 (≈ 0.236 µg/mL) | > 50 | 19 (≈ 5.75 µg/mL) | 50 (≈ 15.1 µg/mL) | > 50
2 | O=C(C1CCN(c2cc(-n3cccc3)ncn2)CC1)N1CCc2ccccc2C1 | 7.41 (≈ 2.87 µg/mL) | > 50 | 3.13 (≈ 1.21 µg/mL) | 7.62 (≈ 2.95 µg/mL) | 0.78 (≈ 0.302 µg/mL) | 12.5 (≈ 4.84 µg/mL) | > 100 | 3.13 (≈ 1.21 µg/mL) | 50 (≈ 19.4 µg/mL) | 2.3 (≈ 0.891 µg/mL) | 0.6 (≈ 0.232 µg/mL) | 1.56 (≈ 0.604 µg/mL) | 3.13 (≈ 1.21 µg/mL) | 0.39 (≈ 0.151 µg/mL) | > 50 | 3.13 (≈ 1.21 µg/mL) | 1.56 (≈ 0.604 µg/mL) | 2.3 (≈ 0.891 µg/mL)
3 | Nc1nc2cc(-c3cncc(Oc4ccc(F)cc4)c3)ccc2[nH]1 | 9.89 (≈ 3.17 µg/mL) | 25 (≈ 8.01 µg/mL) | 12.5 (≈ 4 µg/mL) | 41.2 (≈ 13.2 µg/mL) | 19 (≈ 6.09 µg/mL) | 6.25 (≈ 2 µg/mL) | 31.5 | 19 (≈ 6.09 µg/mL) | 6.25 (≈ 2 µg/mL) | 19 (≈ 6.09 µg/mL) | 6.25 (≈ 2 µg/mL) | 19 (≈ 6.09 µg/mL) | 12.5 (≈ 4 µg/mL) | 6.25 (≈ 2 µg/mL) | 25 (≈ 8.01 µg/mL) | 12.5 (≈ 4 µg/mL) | 19 (≈ 6.09 µg/mL) | 25 (≈ 8.01 µg/mL)
4 | O=C(Nc1nnc(-c2ccc(Cl)cc2)o1)c1cccc(C(F)(F)F)c1 | 27.2 (≈ 10 µg/mL) | 50 (≈ 18.4 µg/mL) | 12.5 (≈ 4.6 µg/mL) | 2.71 (≈ 0.997 µg/mL) | 25 (≈ 9.19 µg/mL) | 12.5 (≈ 4.6 µg/mL) | 9 | 19 (≈ 6.99 µg/mL) | 12.5 (≈ 4.6 µg/mL) | 3.13 (≈ 1.15 µg/mL) | 0.07 (≈ 0.0257 µg/mL) | 25 (≈ 9.19 µg/mL) | 4.7 (≈ 1.73 µg/mL) | 0.05 (≈ 0.0184 µg/mL) | > 50 | 19 (≈ 6.99 µg/mL) | 25 (≈ 9.19 µg/mL) | 6.25 (≈ 2.3 µg/mL)
5 | O=C(NCCc1c[nH]c2ccccc12)c1cc2ccccc2oc1=O | 7.71 (≈ 2.56 µg/mL) | > 50 | 4.7 (≈ 1.56 µg/mL) | 4.78 (≈ 1.59 µg/mL) | 0.78 (≈ 0.259 µg/mL) | 12.5 (≈ 4.15 µg/mL) | > 100 | 3.13 (≈ 1.04 µg/mL) | 50 (≈ 16.6 µg/mL) | 0.78 (≈ 0.259 µg/mL) | 0.6 (≈ 0.199 µg/mL) | 0.78 (≈ 0.259 µg/mL) | 1.56 (≈ 0.518 µg/mL) | 0.3 (≈ 0.0997 µg/mL) | > 50 | 1.2 (≈ 0.399 µg/mL) | 0.78 (≈ 0.259 µg/mL) | 1.56 (≈ 0.518 µg/mL)
6 | O=C(Nc1nc(-c2ccccn2)cs1)c1cncn1-c1ccccc1 | 82.7 (≈ 28.7 µg/mL) | > 50 | 12.5 (≈ 4.34 µg/mL) | 32.5 (≈ 11.3 µg/mL) | 19 (≈ 6.6 µg/mL) | 6.25 (≈ 2.17 µg/mL) | 3.8 | 25 (≈ 8.69 µg/mL) | 12.5 (≈ 4.34 µg/mL) | 19 (≈ 6.6 µg/mL) | 3.13 (≈ 1.09 µg/mL) | 25 (≈ 8.69 µg/mL) | 9.4 (≈ 3.27 µg/mL) | 1.56 (≈ 0.542 µg/mL) | > 50 | 9.4 (≈ 3.27 µg/mL) | 19 (≈ 6.6 µg/mL) | 25 (≈ 8.69 µg/mL)
7 | FC(F)(F)c1nnc2ccc(Cl)nn12 | 6.37 (≈ 1.42 µg/mL) | > 50 | 6.25 (≈ 1.39 µg/mL) | 7.75 (≈ 1.72 µg/mL) | 3.13 (≈ 0.697 µg/mL) | 3.12 (≈ 0.694 µg/mL) | > 100 | 6.25 (≈ 1.39 µg/mL) | 50 (≈ 11.1 µg/mL) | 3.13 (≈ 0.697 µg/mL) | 1.2 (≈ 0.267 µg/mL) | 6.25 (≈ 1.39 µg/mL) | 4.7 (≈ 1.05 µg/mL) | 0.6 (≈ 0.134 µg/mL) | > 50 | 4.7 (≈ 1.05 µg/mL) | 4.7 (≈ 1.05 µg/mL) | 4.7 (≈ 1.05 µg/mL)
8 | Cc1cc(O)nc(-n2nc(C)cc2C)n1 | > 100 | 12.5 (≈ 2.55 µg/mL) | 25 (≈ 5.11 µg/mL) | > 43.3 | 37 (≈ 7.56 µg/mL) | 6.25 (≈ 1.28 µg/mL) | 60.7 | > 50 | 12.5 (≈ 2.55 µg/mL) | 25 (≈ 5.11 µg/mL) | 4.7 (≈ 0.96 µg/mL) | 50 (≈ 10.2 µg/mL) | 50 (≈ 10.2 µg/mL) | 1.56 (≈ 0.319 µg/mL) | 25 (≈ 5.11 µg/mL) | 25 (≈ 5.11 µg/mL) | 50 (≈ 10.2 µg/mL) | > 50
9 | Cc1cc(C)c2cc(C(=O)NC3CCCCCCC3)[nH]c2c1 | 0.01 (≈ 0.00298 µg/mL) | > 50 | < 0.02 | 0.01 (≈ 0.00298 µg/mL) | < 0.02 | ≤ 0.04 | > 100 | < 0.02 | ≤ 0.04 | < 0.02 | < 0.02 | 0.02 (≈ 0.00597 µg/mL) | < 0.02 | < 0.02 | > 50 | < 0.02 | 0.02 (≈ 0.00597 µg/mL) | < 0.02
